Data on nine compounds can be found in patent US7981903B2, “2-[2-{phenylamino}-1H-pyrrolo[2,3-D]pyrimidin-4-yl)amino] benzamide derivatives as IGF-1R inhibitors for the treatment of cancer” (GlaxoSmithKline LLC, priority 2007, dated 2011).

Broadly, the IC50 is the concentration that inhibits the measured activity by half. Lower therefore signals higher potency.

For one assay, the target named is T1, human IR (hIR) (Homo sapiens, UniProt P06213).
T1 construct: containing amino acid residues 979-1382 of human IR; made in house; host or cells: Sf9 cells (baculovirus), same process as hIGF1R
As to the kind of experiment: TR-FRET kinase assay of purified hIR. The note with it: activated hIR 0.5 nM, 10 μM ATP, values given as pIC50 category. It counts as biochemical. Background: TR-FRET usually uses a lanthanide donor and a delayed reading to cut background.

For another assay, the target named is ALK (Homo sapiens, UniProt Q9UM73). Briefly: ALK enzyme assay (HTRF). The note with it: 0.25 nM ALK, 15.0 μM ATP, values given as pIC50 category. It counts as biochemical. In outline:
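Final compound range 0.00017 to 10 μM (twelve 1:3 dilutions). Kinase reaction with ATP and biotinylated synthetic peptide runs 120 min at 20° C, stopped with EDTA; phosphotyrosine detected by HTRF after 60 min. Inhibition referenced to DMSO (1%) and EDTA (0.1 M) controls, curve-fitted.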

Assay [1] addresses T2, NIH-3T3 cells overexpressing human IR (Homo sapiens, UniProt P06213).
T2 construct: expressed in transfected cells; host or cells: NIH-3T3 (mouse fibroblasts)
Briefly: IR cellular autophosphorylation (DELFIA). The note with it: 2 h compound, insulin 3 ug/ml for 15 minutes, IC50 category. The class given is cell-based. An outline of the steps: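 Receptor autophosphorylation measured by DELFIA, capturing IGF-1R or IRβ and detecting with europium anti-pTyr, reported as percent of IGF-1- or insulin-stimulated signal. Compounds (30 uM to 1.5 nM) added 2 h before ligand, then 15 min stimulation (IGF-1 30 ng/ml or insulin 3 ug/ml).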

ALK, sequence (Q9UM73 19-1620): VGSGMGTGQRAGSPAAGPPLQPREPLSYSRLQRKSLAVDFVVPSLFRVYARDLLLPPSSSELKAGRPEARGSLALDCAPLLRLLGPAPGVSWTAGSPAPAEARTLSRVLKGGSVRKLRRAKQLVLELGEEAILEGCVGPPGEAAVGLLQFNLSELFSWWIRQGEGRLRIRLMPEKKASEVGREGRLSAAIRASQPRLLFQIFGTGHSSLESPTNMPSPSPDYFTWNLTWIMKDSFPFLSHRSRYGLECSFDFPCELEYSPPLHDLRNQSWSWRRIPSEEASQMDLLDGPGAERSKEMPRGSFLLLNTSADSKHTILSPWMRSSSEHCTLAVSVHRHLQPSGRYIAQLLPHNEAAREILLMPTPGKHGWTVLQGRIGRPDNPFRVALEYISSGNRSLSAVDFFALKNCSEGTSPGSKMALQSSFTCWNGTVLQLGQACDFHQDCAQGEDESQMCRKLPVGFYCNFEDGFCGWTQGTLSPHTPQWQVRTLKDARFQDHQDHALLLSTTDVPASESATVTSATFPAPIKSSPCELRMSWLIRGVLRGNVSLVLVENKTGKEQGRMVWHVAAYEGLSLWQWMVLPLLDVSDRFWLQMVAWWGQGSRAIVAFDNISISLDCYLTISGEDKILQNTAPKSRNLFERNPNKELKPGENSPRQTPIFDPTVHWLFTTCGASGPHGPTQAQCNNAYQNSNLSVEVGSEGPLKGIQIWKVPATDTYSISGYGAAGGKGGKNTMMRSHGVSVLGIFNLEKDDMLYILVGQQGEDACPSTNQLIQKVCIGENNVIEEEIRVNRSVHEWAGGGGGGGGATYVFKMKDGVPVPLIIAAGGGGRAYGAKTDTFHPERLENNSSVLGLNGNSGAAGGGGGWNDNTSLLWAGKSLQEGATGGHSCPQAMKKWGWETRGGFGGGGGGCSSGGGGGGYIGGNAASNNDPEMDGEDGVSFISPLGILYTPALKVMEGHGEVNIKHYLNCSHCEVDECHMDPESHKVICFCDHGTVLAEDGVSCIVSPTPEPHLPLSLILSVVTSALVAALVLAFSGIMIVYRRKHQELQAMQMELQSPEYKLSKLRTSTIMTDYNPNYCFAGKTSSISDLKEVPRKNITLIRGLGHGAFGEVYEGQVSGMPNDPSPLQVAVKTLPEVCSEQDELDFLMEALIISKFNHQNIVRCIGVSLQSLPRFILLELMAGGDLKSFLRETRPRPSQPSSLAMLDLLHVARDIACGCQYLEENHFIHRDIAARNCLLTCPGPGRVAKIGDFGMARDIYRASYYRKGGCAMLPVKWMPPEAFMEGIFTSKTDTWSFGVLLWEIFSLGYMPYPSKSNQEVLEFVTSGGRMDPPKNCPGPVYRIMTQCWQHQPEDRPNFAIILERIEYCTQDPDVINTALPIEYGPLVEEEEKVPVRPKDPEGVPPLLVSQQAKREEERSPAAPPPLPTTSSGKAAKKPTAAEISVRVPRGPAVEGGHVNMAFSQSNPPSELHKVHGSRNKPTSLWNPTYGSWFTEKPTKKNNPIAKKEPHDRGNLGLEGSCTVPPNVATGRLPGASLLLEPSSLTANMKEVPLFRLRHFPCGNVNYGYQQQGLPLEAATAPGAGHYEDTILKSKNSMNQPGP
T1 sequence (P06213 979-1382): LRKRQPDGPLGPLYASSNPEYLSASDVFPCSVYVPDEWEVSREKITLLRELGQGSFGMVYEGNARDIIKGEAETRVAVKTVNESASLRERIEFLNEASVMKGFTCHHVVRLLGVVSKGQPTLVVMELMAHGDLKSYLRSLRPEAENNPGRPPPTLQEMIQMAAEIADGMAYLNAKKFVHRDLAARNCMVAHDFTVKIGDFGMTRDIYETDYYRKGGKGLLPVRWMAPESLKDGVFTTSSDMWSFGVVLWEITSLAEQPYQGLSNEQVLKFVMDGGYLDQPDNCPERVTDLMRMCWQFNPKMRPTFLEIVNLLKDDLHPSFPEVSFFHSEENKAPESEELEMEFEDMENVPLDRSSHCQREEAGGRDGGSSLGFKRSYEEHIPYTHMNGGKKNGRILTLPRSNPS
T2 sequence (P06213 28-1382): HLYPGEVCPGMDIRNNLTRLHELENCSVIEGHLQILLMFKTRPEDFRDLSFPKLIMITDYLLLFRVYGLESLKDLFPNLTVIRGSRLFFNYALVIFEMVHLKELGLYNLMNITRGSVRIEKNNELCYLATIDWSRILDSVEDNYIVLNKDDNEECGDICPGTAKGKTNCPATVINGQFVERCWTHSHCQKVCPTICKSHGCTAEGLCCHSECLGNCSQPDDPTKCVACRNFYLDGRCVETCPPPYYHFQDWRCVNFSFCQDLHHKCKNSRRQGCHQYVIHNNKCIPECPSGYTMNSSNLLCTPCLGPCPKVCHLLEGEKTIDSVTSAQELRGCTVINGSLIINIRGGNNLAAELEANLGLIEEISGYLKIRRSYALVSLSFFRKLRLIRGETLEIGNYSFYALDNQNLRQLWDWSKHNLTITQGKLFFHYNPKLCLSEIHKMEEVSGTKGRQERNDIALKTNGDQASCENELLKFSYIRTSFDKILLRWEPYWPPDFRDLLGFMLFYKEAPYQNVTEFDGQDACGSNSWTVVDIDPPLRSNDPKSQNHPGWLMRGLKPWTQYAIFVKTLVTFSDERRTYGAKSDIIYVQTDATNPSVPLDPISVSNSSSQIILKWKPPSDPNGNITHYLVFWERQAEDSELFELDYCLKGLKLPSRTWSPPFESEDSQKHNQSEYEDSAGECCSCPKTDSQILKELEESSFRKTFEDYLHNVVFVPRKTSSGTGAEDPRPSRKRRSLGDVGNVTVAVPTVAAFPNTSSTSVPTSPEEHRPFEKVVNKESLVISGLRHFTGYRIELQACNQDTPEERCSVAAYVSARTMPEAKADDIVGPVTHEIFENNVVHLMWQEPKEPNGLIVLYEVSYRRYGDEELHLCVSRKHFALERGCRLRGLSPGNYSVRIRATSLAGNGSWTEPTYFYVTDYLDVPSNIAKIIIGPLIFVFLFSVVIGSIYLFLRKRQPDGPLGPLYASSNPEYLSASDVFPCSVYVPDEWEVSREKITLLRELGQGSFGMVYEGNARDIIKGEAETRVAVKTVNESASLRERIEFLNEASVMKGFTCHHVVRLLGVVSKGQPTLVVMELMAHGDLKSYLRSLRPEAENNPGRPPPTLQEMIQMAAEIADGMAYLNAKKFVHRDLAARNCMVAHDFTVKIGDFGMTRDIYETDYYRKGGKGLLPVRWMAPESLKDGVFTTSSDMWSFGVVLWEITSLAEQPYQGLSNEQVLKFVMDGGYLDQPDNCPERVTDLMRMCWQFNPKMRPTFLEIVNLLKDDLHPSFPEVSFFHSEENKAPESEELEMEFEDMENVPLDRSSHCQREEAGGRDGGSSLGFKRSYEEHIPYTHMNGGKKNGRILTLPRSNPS

`COc1cc(N2CCN(C(C)C)CC2)ccc1Nc1nc(Nc2cc(Cl)cc(F)c2C(N)=O)c2cc[nH]c2n1` [Example 93, 4-chloro-2-fluoro-6-[(2-{[4-[4-(1-methylethyl)-1-piperazinyl]-2-(methyloxy)phenyl]amino}-1H-pyrrolo[2,3-d]pyrimidin-4-yl)amino]benzamide]: the IC50 is 1.26 to 3.98 nM at human IR (hIR), 0.251 to 1 nM on ALK and 100 to 500 nM in assay [1].

In the case of `COc1cc2c(cc1Nc1nc(Nc3cccc(F)c3C(N)=O)c3cc[nH]c3n1)CN(CCF)CC2` [Example 233, 2-fluoro-6-[(2-{[2-(2-fluoroethyl)-6-(methyloxy)-1,2,3,4-tetrahydro-7-isoquinolinyl]amino}-1H-pyrrolo[2,3-d]pyrimidin-4-yl)amino]benzamide], the results for the IC50 (against human IR (hIR); against ALK; in assay [1]) were 1.26 to 3.98 nM, 1.26 to 3.98 nM and below 100 nM, respectively.

Turning to `COc1cc2c(cc1Nc1nc(Nc3cccc(F)c3C(=O)NCC(C)C)c3cc[nH]c3n1)N(C(=O)CN(C)C)CC2` [Example 157, 2-[(2-{[1-(N,N-dimethylglycyl)-5-(methyloxy)-2,3-dihydro-1H-indol-6-yl]amino}-1H-pyrrolo[2,3-d]pyrimidin-4-yl)amino]-6-fluoro-N-(2-methylpropyl)benzamide], the IC50 on human IR (hIR) is 1.26 to 3.98 nM; against ALK, 1.26 to 3.98 nM; in assay [1], 100 to 500 nM.

With `COc1cc(N2CCN(C(C)C)CC2)ccc1Nc1nc(Nc2cccc3c2C(=O)NC3)c2cc[nH]c2n1` [Example 199, 7-[(2-{[4-[4-(1-methylethyl)-1-piperazinyl]-2-(methyloxy)phenyl]amino}-1H-pyrrolo[2,3-d]pyrimidin-4-yl)amino]-2,3-dihydro-1H-isoindol-1-one], the IC50 on human IR (hIR) was 1.26 to 3.98 nM; at ALK, 0.251 to 1 nM; in assay [1] it was below 100 nM.

Turning to `COc1cc2c(cc1Nc1nc(Nc3cccc(F)c3C(N)=O)c3cc[nH]c3n1)CCN2C(=O)CN(C)C` [Example 197, 2-[(2-{[1-(N,N-dimethylglycyl)-6-(methyloxy)-2,3-dihydro-1H-indol-5-yl]amino}-1H-pyrrolo[2,3-d]pyrimidin-4-yl)amino]-6-fluorobenzamide], the IC50 is 0.251 to 1 nM against human IR (hIR), 1.26 to 3.98 nM on ALK and above 500 nM in assay [1].

Regarding `COc1cc2c(cc1Nc1nc(Nc3cccc(F)c3C(N)=O)c3cc[nH]c3n1)N(C(=O)CN1CCCC1)CC2` [Example 138, 2-fluoro-6-[(2-{[5-(methyloxy)-1-(1-pyrrolidinylacetyl)-2,3-dihydro-1H-indol-6-yl]amino}-1H-pyrrolo[2,3-d]pyrimidin-4-yl)amino]benzamide], the IC50 was 0.251 to 1 nM against human IR (hIR), 1.26 to 3.98 nM at ALK and below 100 nM in assay [1].

On to `COc1cc2c(cc1Nc1nc(Nc3cccc(F)c3C(N)=O)c3cc[nH]c3n1)N(C(=O)CN)CC2` [Example 141, 2-fluoro-6-[(2-{[1-glycyl-5-(methyloxy)-2,3-dihydro-1H-indol-6-yl]amino}-1H-pyrrolo[2,3-d]pyrimidin-4-yl)amino]benzamide], for which the values for the IC50 (against human IR (hIR); on ALK; in assay [1]) were 1.26 to 3.98 nM, 1.26 to 3.98 nM and above 500 nM, respectively.

Regarding `COc1cc2c(cc1Nc1nc(Nc3cccc(F)c3C(N)=O)c3cc[nH]c3n1)CN(C(C)C)CC2` [Example 236, 2-fluoro-6-[(2-{[2-(1-methylethyl)-6-(methyloxy)-1,2,3,4-tetrahydro-7-isoquinolinyl]amino}-1H-pyrrolo[2,3-d]pyrimidin-4-yl)amino]benzamide], the IC50 was 1.26 to 3.98 nM at human IR (hIR), 1.26 to 3.98 nM against ALK and 100 to 500 nM in assay [1].

As to `COc1cc2c(cc1Nc1nc(Nc3cccc(F)c3C(N)=O)c3cc[nH]c3n1)CN(C(=O)CN(C)C)CC2` [Example 123, 2-[(2-{[2-(N,N-dimethylglycyl)-6-(methyloxy)-1,2,3,4-tetrahydro-7-isoquinolinyl]amino}-1H-pyrrolo[2,3-d]pyrimidin-4-yl)amino]-6-fluorobenzamide], the IC50 on human IR (hIR) is 1.26 to 3.98 nM; on ALK, 1.26 to 3.98 nM; in assay [1] it was 100 to 500 nM.
